# The supplement of paper PMC10307832
# Experiments:
# Assay in all cases: relative viability (nuclei count vs DMSO), 5 days (fraction); higher = more cells survive
# AZD8055 = compound: COc1ccc(-c2ccc3c(N4CCOC[C@@H]4C)nc(N4CCOC[C@@H]4C)nc3n2)cc1CO [AZD8055]
# How it was run: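 For viability, nuclei in each treated well were divided by nuclei in vehicle wells and the median across plates was taken. Lung cancer cell lines in 1536-well plates were pinned with five library-drug doses (not always all listed) spaced by √10, cultured 5 days without medium change, and imaged at 4× after Hoechst staining, with plates passing only at control CV below 25% and at least one doubling.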
# AZD8055 + Navitoclax = compound: COc1ccc(-c2ccc3c(N4CCOC[C@@H]4C)nc(N4CCOC[C@@H]4C)nc3n2)cc1CO [AZD8055] + CC1(C)CCC(c2ccc(Cl)cc2)=C(CN2CCN(c3ccc(C(=O)NS(=O)(=O)c4ccc(N[C@H](CCN5CCOCC5)CSc5ccccc5)c(S(=O)(=O)C(F)(F)F)c4)cc3)CC2)C1 [Navitoclax] (partner 0.5 µM)
# How it was run: (§1)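 Lung cancer cell lines were seeded in 1536-well plates and dosed by pin tool the next day, with either a single drug or a fixed anchor-drug dose combined with five library-drug doses (not always all listed) spaced in √10 steps. Five days later, one step fixed the cells and stained their nuclei (final 0.05% Triton X-100, 1% formaldehyde, 1 ug/ml Hoechst), and nuclei were counted on 4× images. Relative viability is the nuclei count in treated wells divided by the count in vehicle wells, and each value is the median of duplicate plates.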
# AZD8055 + Tozasertib = compound: COc1ccc(-c2ccc3c(N4CCOC[C@@H]4C)nc(N4CCOC[C@@H]4C)nc3n2)cc1CO [AZD8055] + Cc1cc(Nc2cc(N3CCN(C)CC3)nc(Sc3ccc(NC(=O)C4CC4)cc3)n2)n[nH]1 [Tozasertib] (partner 0.1 µM)
# How it was run: as §1
# AZD8055 + Phenformin = compound: COc1ccc(-c2ccc3c(N4CCOC[C@@H]4C)nc(N4CCOC[C@@H]4C)nc3n2)cc1CO [AZD8055] + N=C(N)NC(=N)NCCc1ccccc1 [Phenformin] (partner 250 µM)
# How it was run: as §1
Cell Line,relative viability (AZD8055; 0.01 µM),relative viability (AZD8055; 0.03162 µM),relative viability (AZD8055; 0.1 µM),relative viability (AZD8055; 0.3162 µM),relative viability (AZD8055; 1 µM),relative viability (AZD8055 + Navitoclax; first compound 0.01 µM),relative viability (AZD8055 + Navitoclax; first compound 0.03162 µM),relative viability (AZD8055 + Navitoclax; first compound 0.1 µM),relative viability (AZD8055 + Navitoclax; first compound 0.3162 µM),relative viability (AZD8055 + Navitoclax; first compound 1 µM),relative viability (AZD8055 + Tozasertib; first compound 0.01 µM),relative viability (AZD8055 + Tozasertib; first compound 0.03162 µM),relative viability (AZD8055 + Tozasertib; first compound 0.1 µM),relative viability (AZD8055 + Tozasertib; first compound 0.3162 µM),relative viability (AZD8055 + Tozasertib; first compound 1 µM),relative viability (AZD8055 + Phenformin; first compound 0.01 µM),relative viability (AZD8055 + Phenformin; first compound 0.03162 µM),relative viability (AZD8055 + Phenformin; first compound 0.1 µM),relative viability (AZD8055 + Phenformin; first compound 0.3162 µM),relative viability (AZD8055 + Phenformin; first compound 1 µM)
HARA,1.11,1.06,0.774,0.563,0.304,1.16,1.13,0.935,0.738,0.393,0.103,0.162,0.0997,0.0987,0.0859,0.548,0.478,0.5,0.307,0.215
HCC-15,1.09,1.03,0.883,0.53,0.351,0.782,0.591,0.561,0.38,0.293,0.437,0.379,0.415,0.296,0.222,0.547,0.459,0.425,0.286,0.232
HCC-44,0.99,1.03,0.844,0.552,0.473,0.985,0.891,0.617,0.41,0.448,1.03,0.914,0.626,0.543,0.613,0.216,0.197,0.132,0.158,0.128
HCC-78,1.03,0.837,0.615,0.395,0.457,0.817,0.574,0.339,0.238,0.198,0.475,0.404,0.341,0.299,0.232,0.684,0.64,0.437,0.386,0.35
HCC-366,1.11,0.963,0.907,0.698,0.354,1.15,0.911,0.694,0.418,0.132,0.14,0.0951,0.0932,0.0432,0.0587,0.737,0.449,0.592,0.23,0.168
HCC-827,1.13,1.1,1.11,0.876,0.768,1.03,0.991,1.03,0.92,0.456,0.449,0.448,0.447,0.235,0.295,0.426,0.395,0.416,0.349,0.288
HOP-62,1.09,0.922,1.08,0.639,0.54,1.09,1.11,1.17,0.75,0.594,0.414,0.46,0.401,0.292,0.273,0.717,0.628,0.585,0.462,0.294
LC-2-ad,1.04,1.04,0.922,0.621,0.529,0.349,0.309,0.163,0.185,0.154,0.491,0.564,0.366,0.339,0.377,0.549,0.564,0.538,0.336,0.362
